{"source": "patent US7875621B2", "about": "“Substituted 2-alkyl quinazolinone derivatives as PARP inhibitors” (Janssen Pharmaceutica NV, priority 2004, dated 2011)"}
{"units": {"melting point": "°C"}}
{"smiles": "O=C(CC1CCN(CCc2nc3ccccc3c(=O)[nH]2)CC1)c1ccc(F)cc1", "note": "[Compound 3]", "melting point": 159.1}
{"smiles": "NC(=O)C1(c2ccccc2)CCN(CCCc2nc3ccccc3c(=O)[nH]2)CC1", "note": "[Compound 4]", "melting point": 138.9}
{"smiles": "NC(=O)C1(c2ccccc2)CCN(CCCC2NC(=O)c3ccccc3N2)CC1", "note": "(stereo not drawn) [Compound 5]", "melting point": 216.1}
